# In patent publication US6548494B1, “Tricyclic inhibitors of poly(ADP-ribose) polymerases” (Agouron Pharmaceuticals, Inc., priority 1999, dated 2003):
# “And” between values parts separate entries of the source, which are not always exact repeats. Identical values can stand only once. Counter-ions that a name gives are not always drawn.
# Target: purified PARP protein (Homo sapiens, UniProt P09874)
# Test: PARP enzyme inhibition assay
# Type: biochemical
# Conditions: 20 nM purified PARP (5 nM for tight-binding inhibitors), 500 μM NAD+, 25° C.; several values in one cell = repeat determinations; read-out: Inhibition Constant Ki
# Chain of purified PARP protein (P09874 whole entry): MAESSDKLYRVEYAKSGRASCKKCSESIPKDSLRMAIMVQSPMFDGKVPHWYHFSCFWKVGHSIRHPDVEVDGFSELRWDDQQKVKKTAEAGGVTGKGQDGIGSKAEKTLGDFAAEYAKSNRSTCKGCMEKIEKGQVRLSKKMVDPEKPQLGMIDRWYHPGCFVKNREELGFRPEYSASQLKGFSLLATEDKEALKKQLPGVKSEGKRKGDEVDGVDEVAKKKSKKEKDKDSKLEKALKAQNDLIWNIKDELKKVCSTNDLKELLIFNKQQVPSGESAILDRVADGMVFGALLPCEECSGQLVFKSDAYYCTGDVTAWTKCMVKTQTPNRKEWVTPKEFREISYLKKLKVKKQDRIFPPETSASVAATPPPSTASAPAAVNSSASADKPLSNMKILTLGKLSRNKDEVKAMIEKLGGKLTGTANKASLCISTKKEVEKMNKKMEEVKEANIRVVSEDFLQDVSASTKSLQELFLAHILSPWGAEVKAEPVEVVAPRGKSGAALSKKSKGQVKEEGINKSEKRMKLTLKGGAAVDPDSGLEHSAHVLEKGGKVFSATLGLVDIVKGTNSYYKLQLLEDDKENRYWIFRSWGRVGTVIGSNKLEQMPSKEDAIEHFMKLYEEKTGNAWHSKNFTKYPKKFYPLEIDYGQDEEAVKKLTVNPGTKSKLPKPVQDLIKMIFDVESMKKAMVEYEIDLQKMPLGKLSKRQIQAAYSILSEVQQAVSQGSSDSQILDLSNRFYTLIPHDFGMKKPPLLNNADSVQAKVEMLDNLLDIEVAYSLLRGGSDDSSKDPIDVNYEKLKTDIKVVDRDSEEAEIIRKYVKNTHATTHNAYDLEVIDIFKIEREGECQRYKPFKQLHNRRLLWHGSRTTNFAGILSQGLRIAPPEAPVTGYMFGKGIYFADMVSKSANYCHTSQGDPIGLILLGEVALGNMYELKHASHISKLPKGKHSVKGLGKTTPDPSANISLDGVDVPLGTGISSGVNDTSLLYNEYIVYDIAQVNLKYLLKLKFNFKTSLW
row,Ki,SMILES
1,30.7 nM,"O=C1N[C@@H](COCc2ccccc2)Cn2c(-c3ccc(CO)cc3)nc3cccc1c32 [Example 238a, (R)-8-Benzyloxymethyl-1-(4-hydroxymethyl-phenyl)-8,9-dihydro-7H-2,7,9a-triaza-benzo[cd]azulen-6-one]"
2,10 nM,"C[C@H]1Cn2c(-c3ccc(CO)cc3)nc3cccc(c32)C(=O)N1 [Example 221a, (S)-1-(4-Hydroxymethyl-phenyl)-8-methyl-8,9-dihydro-7H-2,7,9a-triaza-benzo[cd]azulen-6-one]"
3,6.3 nM,"O=C1NCCn2c(-c3ccc(CN4CCC[C@@H]4CO)cc3)nc3cccc1c32 [Example 173, 1-[4-((2R)-2-Hydroxymethyl-pyrrolidin-1-ylmethyl)-phenyl]-8,9-dihydro-7H-2,7,9a-triaza-benzo[cd]azulen-6-one]"
4,14 nM,"Cc1ccc(C)n1Cc1ccc(-c2nc3cccc4c3n2CCNC4=O)cc1 [Example 244, 1-[4-(2,5-Dimethyl-pyrrol-1-ylmethyl)-phenyl]-8,9-dihydro-7H-2,7,9a-triaza-benzo[cd]azulen-6-one]"
5,54 nM and 60 nM,"O=C1NCCN2CCc3cccc1c32 [Example 41, 3,4,6,7-Tetrahydro-2H-[1,4]diazepino[6,7,1-hi]indol-1-one, reference compound]"
6,30 nM,"O=C1N[C@@H](COCc2ccccc2)Cn2c(-c3ccc(Cl)cc3)nc3cccc1c32 [Example 237b, (R)-8-Benzyloxymethyl-1-(4-chloro-phenyl)-8,9-dihydro-7H-2,7,9a-triaza-benzo[cd]azulen-6-one]"
7,4.8 nM,"O=C1NCCn2c(-c3ccc(CNC4CCC4)cc3)nc3cccc1c32 [Example 188, 1-(4-Cyclobutylaminomethyl-phenyl)-8,9-dihydro-7H-2,7,9a-triaza-benzo[cd]azulen-6-one]"
8,57 nM,"N/N=C(\N)c1c(-c2ccc(F)cc2)n2c3c(cccc13)C(=O)NCC2 [Example 156, 7-Formyl-6-(4-fluorophenyl)-1-oxo-3,4-dihydro-[1,4]diazepino[6,7,1-hi]indole Amidrazone Hydrochloride]"
9,4.3 nM,"O=C1NCCn2c(-c3ccc(CNCc4ccc5c(c4)OCO5)cc3)nc3cccc1c32 [Example 191, 1-(4-{[(Benzo[1,3]dioxol-5-ylmethyl)-amino]-methyl}-phenyl)-8,9-dihydro-7H-2,7,9a-triaza-benzo[cd]azulen-6-one]"
10,5.3 nM,"CC(C)CC(c1ccc(-c2nc3cccc4c3n2CCNC4=O)cc1)N1CCCC1 (stereo not shown) [Example 230, 1-[4-(3-Methyl-1-pyrrolidin-1-yl-butyl)-phenyl]-8,9-dihydro-7H-2,7,9a-triaza-benzo[cd]azulen-6-one]"
11,7.8 nM,"CN(CCc1ccccc1)Cc1ccc(-c2nc3cccc4c3n2C[C@H](CO)NC4=O)cc1 [Example 239, (R)-8-Hydroxymethyl-1-{4-[(methyl-phenethyl-amino)-methyl]-phenyl}-8,9-dihydro-7H-2,7,9a-triaza-benzo[cd]azulen-6-one]"
12,4.7 nM,"O=C1NCCn2c(-c3ccc(CN4CC=CCC4)cc3)nc3cccc1c32 [Example 182, 1-[4-(3,6-Dihydro-2H-pyridin-1-ylmethyl)-phenyl]-2,7,8,9-tetrahydro-2,7,9a-triaza-benzo[cd]azulen-6-one]"
13,5 nM,"O=C1NCCn2c(-c3ccc(C4CCCCN4CC4CC4)cc3)nc3cccc1c32 (stereo not shown) [Example 150, 1-[4-(1-Cyclopropylmethyl-piperidin-2-yl)-phenyl]-8,9-dihydro-7H-2,7,9a-triaza-benzo[cd]azulen-6-one]"
14,6.8 nM,"O=C1N[C@@H](CO)Cn2c(-c3ccc(CN4CCCC4)cc3)nc3cccc1c32 [Example 241, (R)-8-Hydroxymethyl-1-(4-pyrrolidin-1-ylmethyl-phenyl)-8,9-dihydro-7H-2,7,9a-triaza-benzo[cd]azulen-6-one]"
15,5.2 nM and 5.3 nM,"CC(O)c1ccc(-c2nc3cccc4c3n2CCNC4=O)cc1 (stereo not shown) [Example 245a, 1-[4-(1-Hydroxy-ethyl)-phenyl]-8,9-dihydro-7H-2,7,9a-triaza-benzo[cd]azulen-6-one]"
16,3.4 nM,"N#CCc1ccc(-c2nc3cccc4c3n2CCNC4=O)cc1 [Example 242, [4-(6-oxo-6,7,8,9-Tetrahydro-2,7,9a-triaza-benzo[cd]azulen-1-yl)-phenyl]-acetonitrile]"
17,4.7 nM and 5.9 nM,"Cc1ccc(CNCc2ccc(-c3nc4cccc5c4n3CCNC5=O)cc2)o1 [Example 195, 1-(4-{[(5-Methyl-furan-2-ylmethyl)-amino]-methyl}-phenyl)-8,9-dihydro-7H-2,7,9a-triaza-benzo[cd]azulen-6-one]"
18,3.9 nM,"O=C1NCCn2c(-c3ccc(CN4CCC[C@H]4CO)cc3)nc3cccc1c32 [Example 181, 1-[4-((2S)-2-Hydroxymethyl-pyrrolidin-1-ylmethyl)-phenyl]-2,7,8,9-tetrahydro-2,7,9a-triaza-benzo[cd]azulen-6-one]"
19,5 nM and 6 nM,"O=C1N[C@@H](CO)Cn2c(-c3ccc(Cl)cc3)nc3cccc1c32 [Example 237, (R)-1-(4-Chloro-phenyl)-8-hydroxymethyl-8,9-dihydro-7H-2,7,9a-triaza-benzo[cd]azulen-6-one]"
20,22 nM,"CC(C)(C)OC(=O)N1CCCC(c2ccc(-c3nc4cccc5c4n3CCNC5=O)cc2)C1 (stereo not shown) [Example 143, 3-[4-(6-oxo-6,7,8,9-Tetrahydro-2,7,9a-triaza-benzo[cd]azulen-1-yl)-phenyl]-piperidine-1-carboxylic Acid t-Butyl Ester]"

row,Ki,SMILES
1,2 nM and 2.3 nM and 3.5 nM,"CNCc1ccc(-c2nc3cccc4c3n2C[C@H](C)NC4=O)cc1 [Example 222, (S)-8-Methyl-1-(4-methylaminomethyl-phenyl)-8,9-dihydro-7H-2,7,9a-triaza-benzo[cd]azulen-6-one]"
2,5.6 nM,"O=C1NCCn2c(-c3ccc(CNCCc4ccc(F)cc4)cc3)nc3cccc1c32 [Example 185, 1-(4-{[2-(4-Fluoro-phenyl)-ethylamino]-methyl}-phenyl)-2,7,8,9-tetrahydro-2,7,9a-triaza-benzo[cd]azulen-6-one]"
3,1800 nM,"COc1ccc(C2CNC(=O)c3cccc4[nH]c(=O)n2c34)cc1 (racemic) [Example 53, (RS)-(±)-9-(4-Methoxy-phenyl)-8,9-dihydro-2H,7H-2,7,9a-triaza-benzo[cd]azulene-1,6-dione]"
4,12 nM,"C=CCN1CCN(Cc2ccc(-c3nc4cccc5c4n3CCNC5=O)cc2)CC1 [Example 178, 1-[4-(4-Allyl-piperazin-1-ylmethyl)-phenyl]-2,7,8,9-tetrahydro-2,7,9a-triaza-benzo[cd]azulen-6-one]"
5,4.5 nM,"O=C1NCCn2c(-c3ccc(CNC4CCc5ccccc54)cc3)nc3cccc1c32 (stereo not shown) [Example 192, 1-[4-(Indan-1-ylaminomethyl)-phenyl]-8,9-dihydro-7H-2,7,9a-triaza-benzo[cd]azulen-6-one]"
6,2.2 nM,"N#Cc1ccc(-c2nc3cccc4c3n2CCNC4=O)cc1 [Example 227, 4-(6-oxo-6,7,8,9-Tetrahydro-2,7,9a-triaza-benzo[cd]azulen-1-y)-benzonitrile]"
7,4 nM,"O=C1NCCn2c(-c3ccc(Cn4cccc4)cc3)nc3cccc1c32 [Example 220, 1-(4-Pyrrol-1-ylmethyl-phenyl)-8,9-dihydro-7H-2,7,9a-triaza-benzo[cd]azulen-6-one]"
8,6.8 nM,"CN(Cc1ccccc1)Cc1ccc(-c2nc3cccc4c3n2CCNC4=O)cc1 [Example 199, 1-[4-(Benzyl-methyl-amino-methyl)-phenyl]-8,9-dihydro-7H-2,7,9a-triaza-benzo[cd]azulen-6-one]"
9,17 nM,"CC(C)(C)OC(=O)[C@H]1CCCN1Cc1ccc(-c2nc3cccc4c3n2CCNC4=O)cc1 [Example 218, (R)-1-[4-(6-oxo-6,7,8,9-Tetrahydro-2,7,9a-triaza-benzo[cd]azulen-1-yl)-benzyl]-pyrrolidine-2-carboxylic Acid tert-Butyl Ester]"
10,10 nM,"O=C1NCCn2c(S)nc3cccc1c32 [Example 28, 1-Mercapto-8,9-dihydro-7H-2,7,9a-triaza-benzo[cd]azulen-6-one]"
11,4.2 nM and 4.5 nM,"CNCc1ccc(-c2nc3cccc4c3n2C[C@H](CO)NC4=O)cc1 [Example 240, (R)-8-Hydroxymethyl-1-(4-methylaminomethyl-phenyl)-8,9-dihydro-7H-2,7,9a-triaza-benzo[cd]azulen-6-one]"
12,7.4 nM,"CCCCN(CCO)Cc1ccc(-c2nc3cccc4c3n2CCNC4=O)cc1 [Example 180, 1-(4-{[Butyl-(2-hydroxy-ethyl)-amino]-methyl}-phenyl)-2,7,8,9-tetrahydro-2,7,9a-triaza-benzo[cd]azulen-6-one]"
13,7 nM,"CC(C)CN(C)Cc1ccc(-c2nc3cccc4c3n2CCNC4=O)cc1 [Example 187, 1-{4-[(Isobutyl-methyl-amino)-methyl]-phenyl}-8,9-dihydro-7H-2,7,9a-triaza-benzo[cd]azulen-6-one]"
14,8.7 nM,"C[C@H]1Cn2c(-c3ccc(Cn4cccc4)cc3)nc3cccc(c32)C(=O)N1 [Example 234, (S)-8-Methyl-1-(4-pyrrol-1-ylmethyl-phenyl)-8,9-dihydro-7H -2,7,9a-triaza-benzo[cd]azulen-6-one]"
15,5.6 nM,"CN(CCc1ccccc1)Cc1ccc(-c2nc3cccc4c3n2CCNC4=O)cc1 [Example 179, 1-{4-[(Methyl-phenethyl-amino)-methyl]-phenyl}-2,7,8,9-tetrahydro-2,7,9a-triaza-benzo[cd]azulen-6-one]"
16,4 nM,"CN(C)CCCOc1ccc(-c2nc3cccc4c3n2CCNC4=O)cc1 [Example 121, 1-[4-(3-Dimethylamino-propoxy)-phenyl]-8,9-dihydro-7H-2,7,9a-triaza-benzo[cd]azulen-6-one]"
17,4.6 nM,"CC(C)CC(O)c1ccc(-c2nc3cccc4c3n2CCNC4=O)cc1 (stereo not shown) [Example 228, 1-[4-(1-Hydroxy-3-methyl-butyl)-phenyl]-8,9-dihydro-7H-2,7,9a-triaza-benzo[cd]azulen-6-one]"
18,79 nM,"Cc1c(-c2cccc(C(F)(F)F)c2)n2c3c(cccc13)C(=O)NCC2 [Example 52, 6-(3-Trifluoromethyl-phenyl)-7-methyl-3,4-dihydro-2H-[1,4]diazepino[6,7,1-hi]indol-1-one]"
19,35 nM,"Nc1nc2cccc3c2n1CCNC3=O [Example 146, 1-Amino-8,9-dihydro-7H-2,7,9a-triaza-benzo[cd]azulen-6-one Hydrochloride]"

row,SMILES,Ki
1,COC(=O)c1cn2c3c(cccc13)C(=O)NCC2 [Example 44],900 nM
